According to publication PMC12692861, “Biotin-Linked Ursolic Acid Conjugates as Selective Anticancer Agents and Target-Identification Tools for Cancer Therapy” (Molecules, 2025):

Key:
[1] = molecular target: T-complex protein 1 subunit theta (Mus musculus, UniProt P42932); experiment: Streptavidin pulldown proteomics (LC-MS/MS), MB49 cells; type: binding, murine; conditions: MB-49, 50 µM
Procedure: (§1) We used proteomics to identify potential molecular targets of 5c. A pulldown assay with streptavidin-agarose-coated magnetic beads was performed. Briefly, 5637 and MB49 cells were incubated with 50 µM 5c for 10 min and 1 h. After incubation, the cells were rinsed three times with cold phosphate-buffered saline (PBS), and cell lysates were prepared and clarified by centrifugation to remove cellular debris, including nuclei. The clarified lysates were incubated with streptavidin-coated magnetic beads to selectively bind biotinylated contents. Bound proteins were separated from unbound proteins through thorough bead washing. Proteins attached to the beads were eluted and analyzed on an Orbitrap Fusion Tribrid mass spectrometer (Thermo Scientific, New York, NY, USA) coupled with an Ultimate 3000 nano-UPLC system. Samples were trapped on a PepMap100 C18 trap column (5 µm, 0.3 × 5 mm) and separated on a PepMap RSLC C18 column (2 µm, 75 µm × 150 mm) using a gradient from 2 to 40% acetonitrile with 0.1% formic acid over 120 min at […] and 40 °C. MS data were acquired in positive mode using data-dependent acquisition (DDA), with precursor scans at 120,000 FWHM (400–2000 m/z), and MS/MS scans in top-speed mode (3 s cycle) using HCD fragmentation (NCE 32%). Proteins were identified and quantified based on peptide spectral matches (PSMs), and fold enrichment compared to controls was calculated to evaluate interaction strength.
(§2) The 5637 and MB49 cells were cultured and treated with higher concentrations of 5c (50 µM) for short period of times (10 min & 60 min) followed by whole cell lysis (WCL) preparation of both treated and untreated cells using modified RIPA buffer [NaCl (100mM), TrisCl (20mM, pH 7.4), EDTA (10 mM), TritonX-100 (0.5%), Glycerol (5%), Protease inhibitor cocktail (1x)] with gentle continuous rotation. The protein content of each WCL was estimated using Pierce™ BCA Protein Assay kit (Thermo-Scientific # 23225). The 100 µL of resuspended Dynabeads™ MyOne™ Streptavidin C1 (Invitrogen # 65001) were washed with PBST (PBS with 0.01% Tween™20) in a magnet stand as recommended in the manufacturer’s instructions. The washed beads were incubated with 200 µg of each WCL in separate tubes at room temperature for 2 h in a gentle end-over-end mixing. After incubation, beads were washed 3–5 times with PBST (0.01% Tween-20) on a magnetic stand and beads were decanted by after spinning and magnetization. The samples were stored at −80 °C till further analysis using LC-MS/MS by the Proteomics and Mass Spectrometry Core Laboratory of Augusta University.

[2] = molecular target: Ras GTPase-activating-like protein IQGAP1 (Mus musculus, UniProt Q9JKF1); experiment: as above; type: binding, murine; conditions: MB-49, 50 µM
Procedure: as §1, §2

Histone H2B type 1-M [3] = molecular target: Histone H2B type 1-M (Mus musculus, UniProt P10854); experiment: as above; type: binding, murine; conditions: MB-49, 50 µM
Procedure: as §1, §2

HSC 71 [4] = molecular target: HSC 71 (Mus musculus, UniProt P63017); experiment: as above; type: binding, murine; conditions: MB-49, 50 µM
Procedure: as §1, §2

[5] = molecular target: ATP synthase subunit alpha (Mus musculus, UniProt Q03265); experiment: as above; type: binding, murine; conditions: MB-49, 50 µM
Procedure: as §1, §2

[6] = molecular target: Rab-like protein 6 (RABL6) (Mus musculus, UniProt Q5U3K5); experiment: as above; type: binding, murine; conditions: MB-49, 50 µM
Procedure: as §1, §2

Histone H4 = Histone H4 (Mus musculus, UniProt P62806); experiment: as above; type: binding, murine; conditions: MB-49, 50 µM
Procedure: as §1, §2

Filamin-A (FLNA) = Filamin-A (FLNA) (Mus musculus, UniProt Q8BTM8); experiment: as above; type: binding, murine; conditions: MB-49, 50 µM
Procedure: as §1, §2

[7] = molecular target: ATP synthase subunit beta (Mus musculus, UniProt P56480); experiment: as above; type: binding, murine; conditions: MB-49, 50 µM
Procedure: as §1, §2

HSP 90-beta (HSP90β) = HSP 90-beta (HSP90β) (Homo sapiens, UniProt P08238); experiment: Streptavidin pulldown proteomics (LC-MS/MS), 5637 cells; type: binding; conditions: 5637, 50 µM
Procedure: as §1, §2

[8] = molecular target: Rab-like protein 6 (RABL6) (Homo sapiens, UniProt Q3YEC7); experiment: as above; type: binding; conditions: 5637, 50 µM
Procedure: as §1, §2

HSC 71 [9] = molecular target: HSC 71 (Homo sapiens, UniProt P11142); experiment: as above; type: binding; conditions: 5637, 50 µM
Procedure: as §1, §2

[10] = molecular target: Heterogeneous nuclear ribonucleoprotein U (HNRNPU) (Homo sapiens, UniProt Q00839); experiment: as above; type: binding; conditions: 5637, 50 µM
Procedure: as §1, §2

Histone H2B type 1-M [11] = molecular target: Histone H2B type 1-M (Homo sapiens, UniProt Q99879); experiment: as above; type: binding; conditions: 5637, 50 µM
Procedure: as §1, §2

[12] = molecular target: Splicing factor U2AF 65 kDa subunit (U2AF65) (Homo sapiens, UniProt P26368); experiment: as above; type: binding; conditions: 5637, 50 µM
Procedure: as §1, §2

[13] = molecular target: T-complex protein 1 subunit theta (Homo sapiens, UniProt P50990); experiment: as above; type: binding; conditions: 5637, 50 µM
Procedure: as §1, §2

[14] = molecular target: Elongation factor 1-beta (EF1β) (Homo sapiens, UniProt P24534); experiment: as above; type: binding; conditions: 5637, 50 µM
Procedure: as §1, §2

[15] = molecular target: Receptor of activated protein C kinase 1 (RACK1) (Homo sapiens, UniProt P63244); experiment: as above; type: binding; conditions: 5637, 50 µM
Procedure: as §1, §2

[16] = molecular target: Elongation factor 2 (eEF2) (Homo sapiens, UniProt P13639); experiment: as above; type: binding; conditions: 5637, 50 µM
Procedure: as §1, §2

[17] = molecular target: Histone H2A type 2-C (HIST2H2AC) (Homo sapiens, UniProt Q16777); experiment: as above; type: binding; conditions: 5637, 50 µM
Procedure: as §1, §2

[18] = molecular target: Elongation factor 1-delta (EF1δ) (Homo sapiens, UniProt P29692); experiment: as above; type: binding; conditions: 5637, 50 µM
Procedure: as §1, §2

Ras GTPase-activating-like protein IQGAP1, sequence (Q9JKF1 whole entry): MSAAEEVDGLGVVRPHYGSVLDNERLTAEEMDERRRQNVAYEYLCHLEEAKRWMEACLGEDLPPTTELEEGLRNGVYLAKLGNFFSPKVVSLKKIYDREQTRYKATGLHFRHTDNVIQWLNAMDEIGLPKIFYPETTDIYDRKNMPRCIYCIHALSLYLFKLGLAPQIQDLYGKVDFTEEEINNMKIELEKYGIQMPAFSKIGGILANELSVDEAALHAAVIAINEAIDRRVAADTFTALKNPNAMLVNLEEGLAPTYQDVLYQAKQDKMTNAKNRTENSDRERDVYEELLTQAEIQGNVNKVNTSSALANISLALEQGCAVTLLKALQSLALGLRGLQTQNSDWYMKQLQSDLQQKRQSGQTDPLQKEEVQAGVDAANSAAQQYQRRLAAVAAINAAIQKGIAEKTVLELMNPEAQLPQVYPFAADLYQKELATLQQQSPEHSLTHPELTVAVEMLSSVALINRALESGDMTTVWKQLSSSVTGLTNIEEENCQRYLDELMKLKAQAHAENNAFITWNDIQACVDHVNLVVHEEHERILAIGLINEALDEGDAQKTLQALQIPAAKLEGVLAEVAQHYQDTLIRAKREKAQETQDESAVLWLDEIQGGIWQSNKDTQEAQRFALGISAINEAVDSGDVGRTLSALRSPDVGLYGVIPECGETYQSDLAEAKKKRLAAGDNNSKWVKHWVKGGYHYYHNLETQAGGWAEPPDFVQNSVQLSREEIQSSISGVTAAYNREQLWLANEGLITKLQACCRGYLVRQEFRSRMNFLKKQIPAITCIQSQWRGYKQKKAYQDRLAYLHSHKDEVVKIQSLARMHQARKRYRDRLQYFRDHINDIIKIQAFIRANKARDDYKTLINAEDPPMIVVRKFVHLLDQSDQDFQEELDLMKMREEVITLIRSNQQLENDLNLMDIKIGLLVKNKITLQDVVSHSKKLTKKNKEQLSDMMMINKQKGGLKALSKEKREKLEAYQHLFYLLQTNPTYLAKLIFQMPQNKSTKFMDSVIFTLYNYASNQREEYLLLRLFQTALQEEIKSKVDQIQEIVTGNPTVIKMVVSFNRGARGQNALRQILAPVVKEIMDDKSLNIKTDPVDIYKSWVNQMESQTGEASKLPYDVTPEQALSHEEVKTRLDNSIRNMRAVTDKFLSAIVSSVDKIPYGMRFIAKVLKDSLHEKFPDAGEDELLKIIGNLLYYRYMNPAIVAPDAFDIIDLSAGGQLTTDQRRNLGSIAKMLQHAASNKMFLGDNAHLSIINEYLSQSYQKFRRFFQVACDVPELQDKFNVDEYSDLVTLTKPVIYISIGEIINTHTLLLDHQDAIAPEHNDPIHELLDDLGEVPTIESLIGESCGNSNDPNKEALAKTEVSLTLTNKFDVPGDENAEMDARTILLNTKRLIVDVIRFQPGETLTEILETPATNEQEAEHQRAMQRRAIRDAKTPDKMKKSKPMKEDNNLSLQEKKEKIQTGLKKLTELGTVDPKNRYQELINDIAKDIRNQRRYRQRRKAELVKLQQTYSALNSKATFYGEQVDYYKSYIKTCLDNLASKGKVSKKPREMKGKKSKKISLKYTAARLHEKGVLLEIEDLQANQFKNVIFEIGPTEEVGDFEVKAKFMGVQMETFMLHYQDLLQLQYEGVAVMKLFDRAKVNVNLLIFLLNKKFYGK
T-complex protein 1 subunit theta (Mus musculus, UniProt P42932), sequence (P42932 2-548 limits assumed, one chain of several): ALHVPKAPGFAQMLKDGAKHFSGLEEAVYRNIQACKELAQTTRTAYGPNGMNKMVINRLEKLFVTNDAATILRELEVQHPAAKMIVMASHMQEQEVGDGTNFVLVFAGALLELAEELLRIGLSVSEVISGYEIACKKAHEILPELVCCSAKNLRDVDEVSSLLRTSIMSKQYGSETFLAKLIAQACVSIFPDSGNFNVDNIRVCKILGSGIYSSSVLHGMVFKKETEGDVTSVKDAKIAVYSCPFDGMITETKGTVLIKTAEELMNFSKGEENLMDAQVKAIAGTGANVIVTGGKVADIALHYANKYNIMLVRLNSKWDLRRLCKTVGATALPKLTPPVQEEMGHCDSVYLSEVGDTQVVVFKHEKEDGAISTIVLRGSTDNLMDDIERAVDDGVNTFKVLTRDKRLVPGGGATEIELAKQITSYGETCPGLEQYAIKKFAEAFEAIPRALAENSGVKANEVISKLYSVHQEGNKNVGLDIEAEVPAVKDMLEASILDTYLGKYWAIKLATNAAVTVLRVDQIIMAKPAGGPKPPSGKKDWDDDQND
Rab-like protein 6 (RABL6) (Homo sapiens, UniProt Q3YEC7), sequence (Q3YEC7 whole entry): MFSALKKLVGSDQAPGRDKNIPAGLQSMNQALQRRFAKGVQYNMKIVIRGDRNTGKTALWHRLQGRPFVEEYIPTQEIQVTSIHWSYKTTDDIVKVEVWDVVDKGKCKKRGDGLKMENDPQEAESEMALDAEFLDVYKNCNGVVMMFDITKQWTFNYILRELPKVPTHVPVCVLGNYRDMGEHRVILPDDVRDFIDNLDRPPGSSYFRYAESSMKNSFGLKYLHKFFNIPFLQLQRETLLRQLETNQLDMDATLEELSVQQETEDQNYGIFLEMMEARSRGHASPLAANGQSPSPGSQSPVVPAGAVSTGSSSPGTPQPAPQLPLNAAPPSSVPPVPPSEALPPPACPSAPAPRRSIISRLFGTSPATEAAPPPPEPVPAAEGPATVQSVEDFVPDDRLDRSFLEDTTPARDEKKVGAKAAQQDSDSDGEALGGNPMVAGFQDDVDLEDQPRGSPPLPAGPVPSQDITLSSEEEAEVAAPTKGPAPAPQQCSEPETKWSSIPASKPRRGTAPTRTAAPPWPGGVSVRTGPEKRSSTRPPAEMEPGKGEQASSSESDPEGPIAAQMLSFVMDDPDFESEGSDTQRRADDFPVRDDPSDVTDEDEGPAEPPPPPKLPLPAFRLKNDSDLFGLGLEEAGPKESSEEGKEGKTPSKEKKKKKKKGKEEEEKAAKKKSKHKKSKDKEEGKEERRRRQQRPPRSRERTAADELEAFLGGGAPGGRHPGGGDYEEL
HSC 71 (Homo sapiens, UniProt P11142), sequence (P11142 whole entry): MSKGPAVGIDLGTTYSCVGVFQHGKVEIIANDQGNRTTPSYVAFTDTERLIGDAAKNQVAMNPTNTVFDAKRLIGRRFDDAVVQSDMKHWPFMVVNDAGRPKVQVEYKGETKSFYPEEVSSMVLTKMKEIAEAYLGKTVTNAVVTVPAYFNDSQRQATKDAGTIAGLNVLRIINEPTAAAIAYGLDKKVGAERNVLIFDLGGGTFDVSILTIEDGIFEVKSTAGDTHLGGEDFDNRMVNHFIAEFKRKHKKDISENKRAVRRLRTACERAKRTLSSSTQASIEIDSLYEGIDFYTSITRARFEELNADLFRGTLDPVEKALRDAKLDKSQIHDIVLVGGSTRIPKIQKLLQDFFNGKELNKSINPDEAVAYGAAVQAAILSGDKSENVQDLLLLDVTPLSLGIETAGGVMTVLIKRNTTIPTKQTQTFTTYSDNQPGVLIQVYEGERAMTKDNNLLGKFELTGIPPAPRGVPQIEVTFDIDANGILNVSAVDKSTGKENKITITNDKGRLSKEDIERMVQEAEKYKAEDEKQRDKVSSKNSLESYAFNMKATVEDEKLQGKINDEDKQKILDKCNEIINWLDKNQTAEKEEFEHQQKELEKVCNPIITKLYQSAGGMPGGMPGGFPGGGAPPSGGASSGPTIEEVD
T-complex protein 1 subunit theta (Homo sapiens, UniProt P50990), sequence (P50990 whole entry, one chain of several): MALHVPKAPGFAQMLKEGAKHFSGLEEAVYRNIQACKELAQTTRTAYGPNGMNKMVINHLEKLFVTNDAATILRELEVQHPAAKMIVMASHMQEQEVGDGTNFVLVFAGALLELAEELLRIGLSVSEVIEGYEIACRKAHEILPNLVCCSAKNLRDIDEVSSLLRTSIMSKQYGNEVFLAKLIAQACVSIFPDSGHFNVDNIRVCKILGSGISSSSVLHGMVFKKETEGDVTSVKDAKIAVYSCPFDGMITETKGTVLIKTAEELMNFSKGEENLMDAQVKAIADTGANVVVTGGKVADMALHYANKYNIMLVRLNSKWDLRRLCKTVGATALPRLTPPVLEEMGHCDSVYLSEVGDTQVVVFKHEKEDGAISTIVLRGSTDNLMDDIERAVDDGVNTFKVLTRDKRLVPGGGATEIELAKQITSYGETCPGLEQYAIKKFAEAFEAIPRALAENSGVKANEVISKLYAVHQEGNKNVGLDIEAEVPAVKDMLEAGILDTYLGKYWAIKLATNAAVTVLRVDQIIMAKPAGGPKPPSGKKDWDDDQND
Splicing factor U2AF 65 kDa subunit (U2AF65), sequence (P26368 whole entry, one chain of several): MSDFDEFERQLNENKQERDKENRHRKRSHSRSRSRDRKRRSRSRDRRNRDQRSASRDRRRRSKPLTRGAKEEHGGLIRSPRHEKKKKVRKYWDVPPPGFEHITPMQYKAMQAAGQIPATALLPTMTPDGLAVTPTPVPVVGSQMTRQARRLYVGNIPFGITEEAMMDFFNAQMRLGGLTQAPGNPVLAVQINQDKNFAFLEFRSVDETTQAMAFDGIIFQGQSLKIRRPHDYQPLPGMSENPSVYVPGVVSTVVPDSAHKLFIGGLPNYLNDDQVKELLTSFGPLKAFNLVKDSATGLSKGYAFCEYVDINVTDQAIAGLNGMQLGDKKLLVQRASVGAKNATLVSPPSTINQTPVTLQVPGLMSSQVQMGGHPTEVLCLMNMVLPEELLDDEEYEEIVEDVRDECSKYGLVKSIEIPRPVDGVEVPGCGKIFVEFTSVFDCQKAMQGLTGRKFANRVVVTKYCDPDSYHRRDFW
Elongation factor 1-beta (EF1β), sequence (P24534 whole entry): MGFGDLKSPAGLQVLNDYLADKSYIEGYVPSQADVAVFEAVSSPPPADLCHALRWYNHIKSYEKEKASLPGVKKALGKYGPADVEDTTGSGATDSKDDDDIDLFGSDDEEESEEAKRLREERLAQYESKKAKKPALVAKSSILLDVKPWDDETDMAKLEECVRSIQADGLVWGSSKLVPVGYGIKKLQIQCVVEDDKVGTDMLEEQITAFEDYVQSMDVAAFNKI

Fold Change 10 min/Ctrl [1]: 2
Fold Change 1 h/Ctrl [1]: 3
Fold Change 10 min/Ctrl [2]: 1
Fold Change 1 h/Ctrl [2]: 3
Fold Change 10 min/Ctrl (Histone H2B type 1-M [3]): 2.04
Fold Change 1 h/Ctrl (Histone H2B type 1-M [3]): 1.81
Fold Change 10 min/Ctrl (HSC 71 [4]): 1.5
Fold Change 1 h/Ctrl (HSC 71 [4]): 2
Fold Change 10 min/Ctrl [5]: 1.26
Fold Change 1 h/Ctrl [5]: 1.26
Fold Change 10 min/Ctrl [6]: 3
Fold Change 1 h/Ctrl [6]: 5.5
Fold Change 10 min/Ctrl (Histone H4): 1.64
Fold Change 1 h/Ctrl (Histone H4): 1.18
Fold Change 10 min/Ctrl (Filamin-A (FLNA)): 3.33
Fold Change 1 h/Ctrl (Filamin-A (FLNA)): 4
Fold Change 10 min/Ctrl [7]: 1.31
Fold Change 1 h/Ctrl [7]: 1.82
Fold Change 10 min/Ctrl (HSP 90-beta (HSP90β)): 93
Fold Change 1 h/Ctrl (HSP 90-beta (HSP90β)): 97
Fold Change 10 min/Ctrl [8]: 1.33
Fold Change 1 h/Ctrl [8]: 2.67
Fold Change 10 min/Ctrl (HSC 71 [9]): 5.25
Fold Change 1 h/Ctrl (HSC 71 [9]): 6.25
Fold Change 10 min/Ctrl [10]: 4.33
Fold Change 1 h/Ctrl [10]: 4.33
Fold Change 10 min/Ctrl (Histone H2B type 1-M [11]): 3.16
Fold Change 1 h/Ctrl (Histone H2B type 1-M [11]): 1.37
Fold Change 10 min/Ctrl [12]: 14
Fold Change 1 h/Ctrl [12]: 10
Fold Change 10 min/Ctrl [13]: 14
Fold Change 1 h/Ctrl [13]: 12
Fold Change 10 min/Ctrl [14]: 2.35
Fold Change 1 h/Ctrl [14]: 2.35
Fold Change 10 min/Ctrl [15]: 6
Fold Change 1 h/Ctrl [15]: 6
Fold Change 10 min/Ctrl [16]: 44
Fold Change 1 h/Ctrl [16]: 50
Fold Change 10 min/Ctrl [17]: 3.48
Fold Change 1 h/Ctrl [17]: 3.04
Fold Change 10 min/Ctrl [18]: 8
Fold Change 1 h/Ctrl [18]: 7
SMILES: CC1CCC2(C(=O)OCCCCOC(=O)CCCCC3SCC4NC(=O)NC43)CCC3(C)C(=CCC4C5(C)CCC(O)C(C)(C)C5CCC43C)C2C1C [Compound 5c, 4-((5-((3aS,4S,6aR)-2-Oxohexahydro-1H-thieno [3,4-d]imidazol-4-yl)pentanoyl)oxy) butyl 3-hydroxy-urs-12-en-28-oate]
